Results published in patent US20240109917A1 (ACTELION PHARMACEUTICALS LTD, priority 2020, published 2024).

Legend:
VEGFR2, unphosphorylated = VEGFR2, unphosphorylated (Homo sapiens (Human), UniProt P35968); assay: VEGFR ADP GLO Assay; format: biochemical
[1] = molecular target: Tb-labeled inactive PDGFRβ (Homo sapiens (Human), UniProt P09619); assay: PDGFRβ LanthaScreen Assay; format: binding; conditions: read-out: PDGFR Lantha IC50
Chain of Tb-labeled inactive PDGFRβ (P09619 33-1106): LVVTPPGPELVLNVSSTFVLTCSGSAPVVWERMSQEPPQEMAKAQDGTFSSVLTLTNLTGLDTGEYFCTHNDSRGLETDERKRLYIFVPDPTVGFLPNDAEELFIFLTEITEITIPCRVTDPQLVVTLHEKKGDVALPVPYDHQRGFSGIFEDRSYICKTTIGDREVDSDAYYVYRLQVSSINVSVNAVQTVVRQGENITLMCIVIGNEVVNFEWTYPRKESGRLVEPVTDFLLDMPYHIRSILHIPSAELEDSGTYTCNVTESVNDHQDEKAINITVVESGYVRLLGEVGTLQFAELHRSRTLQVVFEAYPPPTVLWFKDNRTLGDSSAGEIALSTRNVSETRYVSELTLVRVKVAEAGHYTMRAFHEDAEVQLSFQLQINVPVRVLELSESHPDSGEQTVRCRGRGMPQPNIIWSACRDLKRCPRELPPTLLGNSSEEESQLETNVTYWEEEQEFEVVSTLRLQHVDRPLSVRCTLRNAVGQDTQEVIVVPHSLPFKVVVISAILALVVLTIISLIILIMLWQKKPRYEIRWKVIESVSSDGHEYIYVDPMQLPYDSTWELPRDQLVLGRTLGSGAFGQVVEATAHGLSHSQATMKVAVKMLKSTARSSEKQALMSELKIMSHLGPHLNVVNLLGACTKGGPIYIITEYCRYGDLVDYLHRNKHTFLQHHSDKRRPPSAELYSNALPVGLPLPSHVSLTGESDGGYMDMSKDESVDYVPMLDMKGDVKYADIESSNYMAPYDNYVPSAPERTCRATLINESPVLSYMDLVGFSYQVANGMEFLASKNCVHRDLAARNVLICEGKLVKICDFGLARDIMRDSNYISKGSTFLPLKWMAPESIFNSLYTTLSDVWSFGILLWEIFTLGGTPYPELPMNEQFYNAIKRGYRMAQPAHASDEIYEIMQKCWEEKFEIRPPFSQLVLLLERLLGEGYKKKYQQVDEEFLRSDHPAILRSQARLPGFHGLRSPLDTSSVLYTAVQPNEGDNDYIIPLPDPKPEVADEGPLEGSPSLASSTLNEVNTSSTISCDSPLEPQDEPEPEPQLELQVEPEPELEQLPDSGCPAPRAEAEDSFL

Chain of VEGFR2, unphosphorylated (P35968 20-1356): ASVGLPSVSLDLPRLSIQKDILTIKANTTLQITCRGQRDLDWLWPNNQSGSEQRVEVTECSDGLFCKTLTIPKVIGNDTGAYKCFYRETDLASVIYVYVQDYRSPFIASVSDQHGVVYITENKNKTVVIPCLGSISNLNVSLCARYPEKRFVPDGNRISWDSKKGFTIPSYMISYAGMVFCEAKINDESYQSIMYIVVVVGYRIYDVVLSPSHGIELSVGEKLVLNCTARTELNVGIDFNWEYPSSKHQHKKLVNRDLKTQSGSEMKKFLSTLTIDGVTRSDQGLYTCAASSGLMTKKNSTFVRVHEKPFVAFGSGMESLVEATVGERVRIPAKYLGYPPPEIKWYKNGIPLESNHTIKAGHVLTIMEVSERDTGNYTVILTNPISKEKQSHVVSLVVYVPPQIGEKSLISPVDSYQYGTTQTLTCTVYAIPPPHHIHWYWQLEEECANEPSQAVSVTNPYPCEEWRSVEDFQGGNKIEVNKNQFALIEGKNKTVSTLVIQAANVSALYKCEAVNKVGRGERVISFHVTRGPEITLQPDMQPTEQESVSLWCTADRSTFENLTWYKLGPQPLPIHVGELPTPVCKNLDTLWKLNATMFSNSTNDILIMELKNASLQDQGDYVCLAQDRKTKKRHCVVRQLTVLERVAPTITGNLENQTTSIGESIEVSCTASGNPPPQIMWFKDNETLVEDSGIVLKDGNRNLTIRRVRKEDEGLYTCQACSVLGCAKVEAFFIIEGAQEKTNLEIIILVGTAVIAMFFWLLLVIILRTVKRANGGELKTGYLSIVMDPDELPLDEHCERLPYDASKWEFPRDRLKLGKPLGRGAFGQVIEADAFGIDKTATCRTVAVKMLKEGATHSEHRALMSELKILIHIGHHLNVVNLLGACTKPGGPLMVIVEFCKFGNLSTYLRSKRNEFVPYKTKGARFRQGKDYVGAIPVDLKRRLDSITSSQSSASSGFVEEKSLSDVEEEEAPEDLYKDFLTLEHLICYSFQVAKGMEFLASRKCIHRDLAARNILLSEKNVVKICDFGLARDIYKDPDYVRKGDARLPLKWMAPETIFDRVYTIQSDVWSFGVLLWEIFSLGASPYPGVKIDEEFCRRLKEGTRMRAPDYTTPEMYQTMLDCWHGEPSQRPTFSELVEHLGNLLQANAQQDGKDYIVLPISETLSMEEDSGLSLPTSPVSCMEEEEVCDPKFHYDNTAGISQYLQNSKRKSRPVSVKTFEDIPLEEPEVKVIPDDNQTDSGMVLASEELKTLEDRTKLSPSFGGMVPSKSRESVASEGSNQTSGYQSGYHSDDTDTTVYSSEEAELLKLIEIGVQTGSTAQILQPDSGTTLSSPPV

Row | SMILES | IC50 (VEGFR2, unphosphorylated) [µM] | IC50 [1] [nM]
1 | Cc1ncc(NC(=O)CC23CCCN2CCC3)cc1NC(=O)c1cnn2cc(-c3cnn(C)c3)sc12 [Example 302, 2-(1-methyl-1H-pyrazol-4-yl)-N-(2-methyl-5-(2-(tetrahydro-1H-pyrrolizin-7a(5H)-yl)acetamido)pyridin-3-yl)pyrazolo[5,1-b]thiazole-7-carboxamide] | > 7.5 | 61.2
2 | Cc1ncc(NC(=O)CN2CC(C)(C)C2)cc1NC(=O)c1cnn2cc(-c3cnn(CC(C)O)c3)sc12 (stereo not shown) [Example 281, N-(5-(2-(3,3-dimethylazetidin-1-yl)acetamido)-2-methylpyridin-3-yl)-2-(1-(2-hydroxypropyl)-1H-pyrazol-4-yl)pyrazolo[5,1-b]thiazole-7-carboxamide] | > 7.5 | 3.8
3 | COc1ncccc1-c1cn2ncc(C(=O)Nc3cc(NC(=O)C4CCCCN4C(C)C)cnc3C)c2s1 (stereo not shown) [Example 315, N-(5-(1-isopropylpiperidine-2-carboxamido)-2-methylpyridin-3-yl)-2-(2-methoxypyridin-3-yl)pyrazolo[5,1-b]thiazole-7-carboxamide] | 4.99 | 4.6
4 | Cc1ncc(NC(=O)CN2CC(C)(C)C2)cc1NC(=O)c1cnn2cc(-c3ccc(C4(O)COC4)cc3)sc12 [Example 272, N-(5-(2-(3,3-dimethylazetidin-1-yl)acetamido)-2-methylpyridin-3-yl)-2-(4-(3-hydroxyoxetan-3-yl)phenyl)pyrazolo[5,1-b]thiazole-7-carboxamide] | > 7.5 | 1.4
5 | COc1ncccc1-c1cn2ncc(C(=O)Nc3cc(NC(=O)CN4CCC5(CCOC5)C4)cnc3C)c2s1 (stereo not shown) [Example 320, N-(5-(2-(2-oxa-7-azaspiro[4.4]nonan-7-yl)acetamido)-2-methylpyridin-3-yl)-2-(2-methoxypyridin-3-yl)pyrazolo[5,1-b]thiazole-7-carboxamide] | > 7.5 | 1.4
6 | Cc1ncc(NC(=O)CN2CC(C)(C)C2)cc1NC(=O)c1cnn2cc(-c3cnn(CC4CC4)c3)sc12 [Example 270, 2-(1-(cyclopropylmethyl)-1H-pyrazol-4-yl)-N-(5-(2-(3,3-dimethylazetidin-1-yl)acetamido)-2-methylpyridin-3-yl)pyrazolo[5,1-b]thiazole-7-carboxamide] | > 7.5 | 5.4
7 | COCCn1cc(-c2cn3ncc(C(=O)Nc4cc(NC(=O)CN5CCCC5(C)C)cnc4C)c3s2)cn1 [Example 329, N-(5-(2-(2,2-dimethylpyrrolidin-1-yl)acetamido)-2-methylpyridin-3-yl)-2-(1-(2-methoxyethyl)-1H-pyrazol-4-yl)pyrazolo[5,1-b]thiazole-7-carboxamide] | > 7.5 | 5.6
8 | Cc1ncc(NC(=O)CN2CCc3ccncc3C2)cc1NC(=O)c1cnn2cc(-c3cnn(C)c3)sc12 [Example 23, N-(5-(2-(3,4-dihydro-2,7-naphthyridin-2 (1H)-yl)acetamido)-2-methylpyridin-3-yl)-2-(1-methyl-1H-pyrazol-4-yl)pyrazolo[5,1-b]thiazole-7-carboxamide] | > 7.5 | 1.3
